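Method: 48-hour compound exposure of cells in 96-well plates, five concentrations, linear interpolation of endpoints. TGI marks complete inhibition of growth.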
Assays:
Test in all cases: DTP human tumour cell line panel, 48 h
786-0 renal = test system: 786-0 renal
A498 renal = test system: A498 renal
A549 NSCLC = test system: A549 NSCLC
ACHN renal = test system: ACHN renal
CAKI-1 renal = test system: CAKI-1 renal
CCRF-CEM leukemia = test system: CCRF-CEM leukemia
COLO 205 colon = test system: COLO 205 colon
DLD-1 colon = test system: DLD-1 colon
DMS 114 small cell lung = test system: DMS 114 small cell lung
DMS 273 small cell lung = test system: DMS 273 small cell lung
EKVX NSCLC = test system: EKVX NSCLC
HCT-116 colon = test system: HCT-116 colon
HCT-15 colon = test system: HCT-15 colon
HL-60(TB) leukemia = test system: HL-60(TB) leukemia
HOP-18 NSCLC = test system: HOP-18 NSCLC
HOP-62 NSCLC = test system: HOP-62 NSCLC
HOP-92 NSCLC = test system: HOP-92 NSCLC
HT29 colon = test system: HT29 colon
IGROV1 ovarian = test system: IGROV1 ovarian
K-562 leukemia = test system: K-562 leukemia
KM12 colon = test system: KM12 colon
KM20L2 colon = test system: KM20L2 colon
LOX IMVI melanoma = test system: LOX IMVI melanoma
LXFL 529 NSCLC = test system: LXFL 529 NSCLC
M14 melanoma = test system: M14 melanoma
M19-MEL melanoma = test system: M19-MEL melanoma
MALME-3M melanoma = test system: MALME-3M melanoma
MOLT-4 leukemia = test system: MOLT-4 leukemia
NCI-H226 lung = test system: NCI-H226 lung
NCI-H23 lung = test system: NCI-H23 lung
NCI-H460 lung = test system: NCI-H460 lung
NCI-H522 lung = test system: NCI-H522 lung
OVCAR-3 ovarian = test system: OVCAR-3 ovarian
OVCAR-4 ovarian = test system: OVCAR-4 ovarian
OVCAR-5 ovarian = test system: OVCAR-5 ovarian
OVCAR-8 ovarian = test system: OVCAR-8 ovarian
RPMI-8226 leukemia = test system: RPMI-8226 leukemia
RXF 393 renal = test system: RXF 393 renal
RXF-631 renal = test system: RXF-631 renal
SF-268 CNS = test system: SF-268 CNS
SF-295 CNS = test system: SF-295 CNS
SF-539 CNS = test system: SF-539 CNS
SK-MEL-2 melanoma = test system: SK-MEL-2 melanoma
SK-MEL-28 melanoma = test system: SK-MEL-28 melanoma
SK-MEL-5 melanoma = test system: SK-MEL-5 melanoma
SK-OV-3 ovarian = test system: SK-OV-3 ovarian
SN12C renal = test system: SN12C renal
SNB-75 CNS = test system: SNB-75 CNS
SNB-78 CNS = test system: SNB-78 CNS
SR leukemia = test system: SR leukemia
SW-620 colon = test system: SW-620 colon
TK-10 renal = test system: TK-10 renal
U251 CNS = test system: U251 CNS
UACC-257 melanoma = test system: UACC-257 melanoma
UACC-62 melanoma = test system: UACC-62 melanoma
UO-31 renal = test system: UO-31 renal
HCC-2998 colon = test system: HCC-2998 colon
SNB-19 CNS = test system: SNB-19 CNS
XF 498 CNS = test system: XF 498 CNS

Measured: TGI

C[N+]1=c2c3cccc4cccc(c(=O)n2CC1)c43
24.4 µM: NCI-H522 lung
32.8 µM: SK-MEL-5 melanoma
17.3 µM: HCT-116 colon
93.8 µM: SK-OV-3 ovarian
46.3 µM: HL-60(TB) leukemia
61.8 µM: HOP-92 NSCLC
54.1 µM: HOP-18 NSCLC
24.6 µM: COLO 205 colon
80.9 µM: OVCAR-8 ovarian
42.4 µM: LXFL 529 NSCLC
87.5 µM: EKVX NSCLC
32.2 µM: SF-539 CNS
28.2 µM: NCI-H460 lung
64.4 µM: HT29 colon
35.1 µM: SF-268 CNS
47.7 µM: K-562 leukemia
93.1 µM: RPMI-8226 leukemia
28.8 µM: DMS 273 small cell lung
22.6 µM: MALME-3M melanoma
45 µM: SNB-75 CNS
25.5 µM: RXF 393 renal
33.5 µM: OVCAR-5 ovarian
54.7 µM: SNB-78 CNS
31.6 µM: M19-MEL melanoma
31.5 µM: UACC-62 melanoma
42.3 µM: CCRF-CEM leukemia | KM12 colon
30 µM: UACC-257 melanoma
10.6 µM: MOLT-4 leukemia
60.7 µM: HCT-15 colon
38.8 µM: TK-10 renal
53 µM: A549 NSCLC
53.1 µM: HOP-62 NSCLC
> 100 µM: 786-0 renal | ACHN renal | CAKI-1 renal | RXF-631 renal | SW-620 colon
28.7 µM: M14 melanoma | NCI-H226 lung
85.8 µM: U251 CNS
34.8 µM: SK-MEL-2 melanoma
9.59 µM: SR leukemia
79.8 µM: OVCAR-3 ovarian
32.3 µM: NCI-H23 lung
56.1 µM: SF-295 CNS
43.3 µM: KM20L2 colon
60.5 µM: IGROV1 ovarian
17.6 µM: LOX IMVI melanoma
30.9 µM: A498 renal
32.4 µM: UO-31 renal
29.2 µM: DMS 114 small cell lung
44 µM: DLD-1 colon
68.8 µM: SN12C renal
43.9 µM: OVCAR-4 ovarian
30.1 µM: SK-MEL-28 melanoma

O=C1C2C(C(=O)N1c1ccccc1)C1c3ccccc3C2C2C(=O)N(c3ccccc3)C(=O)C21 (centres undefined)
11.5 µM: U251 CNS
24.7 µM: HCC-2998 colon
42.8 µM: KM20L2 colon
44.9 µM: HL-60(TB) leukemia
53.2 µM: DMS 273 small cell lung
99.5 µM: OVCAR-5 ovarian
8.07 µM: NCI-H522 lung
27 µM: DMS 114 small cell lung
8.92 µM: DLD-1 colon
31.4 µM: SF-539 CNS
22.6 µM: SNB-75 CNS
15.5 µM: SF-295 CNS
67.8 µM: MALME-3M melanoma
6.52 µM: SK-MEL-2 melanoma
not listed: HOP-62 NSCLC | RXF-631 renal | SNB-78 CNS | SR leukemia | XF 498 CNS
> 100 µM: all other assays above

Cc1cc2c(c(C(N)=O)c1C)-c1cccc(F)c1C2=O
66.5 µM: SNB-75 CNS
not listed: CAKI-1 renal | HL-60(TB) leukemia | HOP-18 NSCLC | NCI-H226 lung | RXF 393 renal | RXF-631 renal | SR leukemia
> 100 µM: all other assays above

C/C(CC(=O)NCCc1ccccc1)=N\NS(=O)(=O)c1ccc(C)cc1
not listed: CAKI-1 renal | HCT-15 colon | HOP-18 NSCLC | OVCAR-4 ovarian | SN12C renal | SR leukemia | SNB-19 CNS
> 100 µM: all other assays above

From PubChem BioAssay (NCI)
